Data: patent US11702414B2, “Thiadiazole IRAK4 inhibitors” (Gilead Sciences, Inc., priority 2018, dated 2023)

How the values were obtained:
IRAK4 enzyme = IRAK4 enzyme (Homo sapiens (Human), UniProt Q9NWZ3); assay: IRAK4 Biochemical Assay (TR-FRET, STK1 KinEASE); conditions: second part of Table 2 (compounds 33-343); unit inferred; read-out: IC50 IRAK4-HTBS
TNFα = assay: IRAK4 Monocyte TNFα Cell Based Assay; parameters: species or system human; conditions: human monocytes; second part of Table 2 (compounds 33-343); unit inferred; read-out: EC50MONO TNF HTRF

IRAK4 enzyme, sequence (Q9NWZ3 whole entry): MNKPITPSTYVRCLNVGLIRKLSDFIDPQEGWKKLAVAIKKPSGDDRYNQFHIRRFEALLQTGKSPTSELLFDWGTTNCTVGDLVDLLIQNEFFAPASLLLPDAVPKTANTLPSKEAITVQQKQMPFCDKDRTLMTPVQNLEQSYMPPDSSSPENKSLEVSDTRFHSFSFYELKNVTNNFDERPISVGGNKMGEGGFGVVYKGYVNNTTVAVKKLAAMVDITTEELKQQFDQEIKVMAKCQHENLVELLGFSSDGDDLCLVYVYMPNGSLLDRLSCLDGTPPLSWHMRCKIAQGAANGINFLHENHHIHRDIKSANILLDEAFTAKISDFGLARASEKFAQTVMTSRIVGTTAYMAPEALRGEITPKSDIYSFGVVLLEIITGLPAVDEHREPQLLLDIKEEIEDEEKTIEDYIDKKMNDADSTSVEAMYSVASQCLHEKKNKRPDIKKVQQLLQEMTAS

| Substance | IC50 (IRAK4 enzyme) [nM] | EC50 (TNFα) [nM] |
| --- | --- | --- |
| (S)-1-(5-(6-(3-cyanopyrrolo[1,2-b]pyridazin-7-yl)-4-(oxetan-3-ylamino)pyridin-3-yl)-1,3,4-thiadiazol-2-yl)-N-methylpyrrolidine-2-carboxamide [Compound 332] | 1.61 | 435 |
| N1-((1R,5S,8s)-3-(5-(6-(3-cyanopyrrolo[1,2-b]pyridazin-7-yl)-4-(isopropylamino)pyridin-3-yl)-1,3,4-thiadiazol-2-yl)-3-azabicyclo[3.2.1]octan-8-yl)-N2-(dimethyl(oxo)-16-sulfanylidene)oxalamide [Example 103] | 0.51 | 1.4 |
| N-((1R,5S,8s)-3-(5-(6-(3-cyanopyrrolo[1,2-b]pyridazin-7-yl)-4-(isopropylamino)pyridin-3-yl)-1,3,4-thiadiazol-2-yl)-3-azabicyclo[3.2.1]octan-8-yl)-2-((dimethyl(oxo)-16-sulfanylidene)amino)acetamide [Example 98] | 1.13 | 3.2 |
